Experimental data from patent US20110152093A1, “Herbicidal compositions comprising flufenacet” (Bayer CropScience AG, priority 2009, published 2011).

How the values were obtained:
Type in all cases: in vivo
AVEFA (Avena fatua) = assay: Pre-sowing application action against weeds (7 days prior to sowing), test method 5; conditions: application 7 days prior to sowing; g of AS/ha: (A) 90, (B) 1200, (C) 140, (A)+(B)+(C) 90 + 1200 + 140
Experimental: (§1) In the standard design of the test, seeds of various broad-leaved weed and weed grass biotypes (origins) were sown in a 8-13 cm diameter pot filled with natural soil of a standard field soil (loamy silt; non-sterile) and covered with a covering soil layer of about 1 cm. The pots were then cultivated in a greenhouse (12-16 h of light, temperature day 20-22° C., night 15-18° C.) until the time of application. The pots were treated on a laboratory track sprayer with spray liquors comprising the compositions according to the invention, mixtures of the prior art or components used individually. Application of the active compounds or active compound combinations formulated as WG, WP, EC or otherwise was carried out at the appropriate growth stages of the plants. The application rate for the spray application was 100-600 l of water/ha. After the treatment, the plants were returned to the greenhouses.
(§2) About 3 weeks after the application, the soil action or/and foliar action was assessed visually according to a scale of 0-100% in comparison to an untreated comparative group: 0%=no noticeable effect compared to the untreated comparative group; 100%=full effect compared to the untreated comparative group.
(§3) (notes: the term “seeds” also includes vegetative propagation forms such as, for example, rhizome pieces; abbreviations used: h light=hours of illumination, g of AS/ha=gram of active substance per hectare, l/ha=liter per hectare, S=sensitive, R=resistant) • 1. Pre-emergence action against weeds: seeds of various broad-leaved weed and weed grass biotypes (origins) were sown in a 8-13 cm diameter pot filled with natural soil of a standard field soil (loamy silt; non-sterile) and covered with a covering soil layer of about 1 cm. The pots were then cultivated in a greenhouse (12-16 h of light, temperature day 20-22° C., night 15-18° C.) until the time of application. The pots were treated at the BBCH stage 00-10 of the seeds/plants on a laboratory track sprayer with spray liquors comprising the compositions according to the invention, mixtures or components used individually, as WG, WP, EC or other formulations. The application rate for the spray application was 100-600 l of water/ha. After the treatment, the plants were returned to the greenhouses and, when required, treated with fertilizer and watered. • 2. Post-emergence action against weeds: seeds of various broad-leaved weed and weed grass biotypes (origins) were sown in a 8-13 cm diameter pot filled with natural soil of a standard field soil (loamy silt; non-sterile) and covered with a covering soil layer of about 1 cm. The pots were then cultivated in a greenhouse (12-16 h of light, temperature day 20-22° C., night 15-18° C.) until the time of application. […]

LOLPE (Lolium perenne) [1] = assay: as above; conditions: application 7 days prior to sowing; g of AS/ha: (A) 90, (B) 1200, (C) 140, (A)+(B)+(C) 90 + 1200 + 140
Experimental: as §1, §2, §3

LOLPE (Lolium perenne) [2] = assay: PE action under various irrigation conditions, test method 6; conditions: PE application, g of AS/ha: (A) 90, (B) 1200, (C) 140, (A)+(B)+(C) 90 + 1200 + 140
Experimental: as §1, §2
(§4) (notes: the term “seeds” also includes vegetative propagation forms such as, for example, rhizome pieces; abbreviations used: h light=hours of illumination, g of AS/ha=gram of active substance per hectare, l/ha=liter per hectare, S=sensitive, R=resistant) • 1. Pre-emergence action against weeds: seeds of various broad-leaved weed and weed grass biotypes (origins) were sown in a 8-13 cm diameter pot filled with natural soil of a standard field soil (loamy silt; non-sterile) and covered with a covering soil layer of about 1 cm. The pots were then cultivated in a greenhouse (12-16 h of light, temperature day 20-22° C., night 15-18° C.) until the time of application. The pots were treated at the BBCH stage 00-10 of the seeds/plants on a laboratory track sprayer with spray liquors comprising the compositions according to the invention, mixtures or components used individually, as WG, WP, EC or other formulations. The application rate for the spray application was 100-600 l of water/ha. After the treatment, the plants were returned to the greenhouses and, when required, treated with fertilizer and watered. • 2. Post-emergence action against weeds: seeds of various broad-leaved weed and weed grass biotypes (origins) were sown in a 8-13 cm diameter pot filled with natural soil of a standard field soil (loamy silt; non-sterile) and covered with a covering soil layer of about 1 cm. The pots were then cultivated in a greenhouse (12-16 h of light, temperature day 20-22° C., night 15-18° C.) until the time of application. The pots were treated at various BBCH stages between 11-25 of the seeds/plants, i.e. generally between two to three weeks after the start of the cultivation, on a laboratory track sprayer with spray liquors comprising the compositions according to the invention, mixtures or components used individually, as WG, WP, EC or other formulations. The application rate for the spray application was 100-600 l of water/ha. After the treatment, the plants were returned to the greenhouses and, when required, treated with fertilizer and watered. • 3. Selective pre-emergence action: seeds of various crop species (origins) were sown in a 8-13 cm diameter pot filled with natural soil of a standard field soil (loamy silt; non-sterile) and covered with a covering soil layer of about 1 cm. The pots were then cultivated in a greenhouse (12-16 h of light, temperature day 20-22° C., night 15-18° C.) until the time of application. The pots were treated at the BBCH stage 00-10 of the seeds/plants on a laboratory track sprayer with spray liquors comprising the compositions according to the invention, mixtures or components used individually, as WG, WP, EC or other formulations. The application rate for the spray application was 100-600 l of water/ha. […]

[3] = system: MATCH (Matricaria chamomilla); assay: as above; conditions: PE application
Experimental: as §1, §2, §4

STEME (Stellaria media) = assay: Action under various soil conditions (soil types), test method 7; conditions: g of AS/ha: (A) 90, (B) 1200, (C) 140, (A)+(B)+(C) 90 + 1200 + 140
Experimental: as §1, §2, §4

[4] = system: MATCH (Matricaria chamomilla); assay: as above; conditions: g of AS/ha: (A) 90, (B) 1200, (C) 140, (A)+(B)+(C) 90 + 1200 + 140
Experimental: as §1, §2, §4

[5] = system: HORVS (Hordeum vulgare, summer barley); assay: PE crop selectivity at different sowing depths, test method 9; conditions: PE application, g of AS/ha: (A) 90, (B) 1200, (C) 140, (A)+(B)+(C) 90 + 1200 + 140
Experimental: as §1
as §2, with “group. […]” for “group.”

[6] = system: ALOMY sensitive (Alopecurus myosuroides); assay: PE action on resistant weed biotypes, test method 8; conditions: PE application; g of AS/ha: (A) 90, (B) 1200, (C) 140, (A)+(B)+(C) 90 + 1200 + 140, iodosulfuron 10
Experimental: as §1, §2, §4

[7] = system: LOLSS sensitive (Lolium species); assay: as above; conditions: PE application; g of AS/ha: (A) 90, (B) 1200, (C) 140, (A)+(B)+(C) 90 + 1200 + 140, iodosulfuron 10
Experimental: as §1, §2, §4

[8] = system: ALOMY resistant (Alopecurus myosuroides); assay: as above; conditions: PE application; g of AS/ha: (A) 90, (B) 1200, (C) 140, (A)+(B)+(C) 90 + 1200 + 140, iodosulfuron 10
Experimental: as §1, §2, §4

[9] = system: LOLSS resistant (Lolium species); assay: as above; conditions: PE application; g of AS/ha: (A) 90, (B) 1200, (C) 140, (A)+(B)+(C) 90 + 1200 + 140, iodosulfuron 10
Experimental: as §1, §2, §4

CCC(CC)Nc1c([N+](=O)[O-])cc(C)c(C)c1[N+](=O)[O-] [(B) pendimethalin, N-(1-ethylpropyl)-3,4-dimethyl-2,6-dinitrobenzenamine]
activity AVEFA (AVEFA (Avena fatua)): 70% | activity LOLPE (LOLPE (Lolium perenne) [1]): 0% | activity LOLPE (LOLPE (Lolium perenne) [2]; irrigation from above): 75% | activity LOLPE (LOLPE (Lolium perenne) [2]; irrigation from below): 10% | activity MATCH ([3]; irrigation from above, g of AS/ha: (A) 90, (B) 1200, (C) 140, (A)+(B)+(C) 90 + 1200 + 90): 30% | activity MATCH ([3]; irrigation from below, g of AS/ha: (A) 90, (B) 1200, (C) 140, (A)+(B)+(C) 90 + 1200 + 140): 18% | activity STEME IU soil (STEME (Stellaria media); IU soil): 85% | activity STEME IU/EC73 soil (STEME (Stellaria media); IU/EC73 soil): 55% | activity MATCH IU soil ([4]; IU soil): 10% | activity MATCH IU/EC73 soil ([4]; IU/EC73 soil): 0% | activity HORVS 5 mm (crop plant) ([5]; sowing depth 5 mm): 30% | activity HORVS 20 mm (crop plant) ([5]; sowing depth 20 mm): 20% | activity ALOMY sensitive [6]: 30% | activity LOLSS sensitive [7]: 78% | activity ALOMY resistant [8]: 40% | activity LOLSS resistant [9]: 0%
